Experimental data published in patent US10294236B2, “Compounds as rearranged during transfection (RET) inhibitors” (GLAXOSMITHKLINE INTELLECTUAL PROPERTY DEVELOPMENT LIMITED, priority 2014, dated 2019).
Structures can show the parent of a compound that is named as a salt.

Molecular target: T1, Human RET kinase cytoplasmic domain (Homo sapiens, UniProt P07949)
T1 construct: made in house
T1 sequence (P07949 658-1114): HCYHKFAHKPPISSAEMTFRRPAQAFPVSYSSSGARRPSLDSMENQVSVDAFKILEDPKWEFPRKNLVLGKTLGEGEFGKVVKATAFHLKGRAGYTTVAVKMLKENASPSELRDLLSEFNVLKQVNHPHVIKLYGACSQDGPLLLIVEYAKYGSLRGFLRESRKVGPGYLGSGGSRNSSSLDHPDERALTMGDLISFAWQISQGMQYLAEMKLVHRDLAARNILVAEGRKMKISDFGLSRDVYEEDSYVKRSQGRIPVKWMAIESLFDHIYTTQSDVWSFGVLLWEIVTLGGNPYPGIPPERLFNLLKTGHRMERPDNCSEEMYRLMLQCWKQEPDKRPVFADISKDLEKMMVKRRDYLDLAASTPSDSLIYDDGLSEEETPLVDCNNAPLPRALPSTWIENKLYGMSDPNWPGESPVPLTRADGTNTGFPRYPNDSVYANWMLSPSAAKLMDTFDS
Experiment: RET kinase enzymatic assay
Format: biochemical
Summary of the method: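 GST-RET, 0.2 nM in 2× enzyme mix (HEPES, CHAPS, BSA, DTT), preincubated with inhibitor 30 min at 23 °C. Reaction for 1 h at 23 °C after adding 2× substrate mix: 20 μM ATP, 20 mM MgCl2, 1 μM biotinylated peptide. Single wells per concentration; IC50 from sigmoidal dose-response fit.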

Row | IC50 [µM] | Compound
1 | < 0.1 | CCOc1cc(-c2ncc(NC(=O)Nc3ccc(C#N)c(C(F)(F)F)c3)c(C)n2)c[nH]c1=O [Example 43, 1-(4-Cyano-3-(trifluoromethyl)phenyl)-3-(2-(5-ethoxy-6-oxo-1,6-dihydropyridin-3-yl)-4-methylpyrimidin-5-yl)urea]
2 | < 0.1 | CCOc1cc(-c2ncc(NC(=O)Nc3ccc(CC(C)(C)C#N)c(C(F)(F)F)c3)c(C)n2)c[nH]c1=O [Example 14, 1-(4-(2-Cyano-2-methylpropyl)-3-(trifluoromethyl)phenyl)-3-(2-(5-ethoxy-6-oxo-1,6-dihydropyridin-3-yl)-4-methylpyrimidin-5-yl)urea]
3 | < 0.1 | CCOc1cc(-c2ccc(NC(=O)Nc3ccc(OC(C)(C)C#N)c(C(F)(F)F)c3)c(F)c2)c[nH]c1=O [Example 83]
4 | < 0.1 | CC1(Oc2ccc(NC(=O)Nc3ccc(-c4ccc(=O)[nH]c4)cc3F)cc2C(F)(F)F)COC1 [Example 147]
5 | < 0.1 | CCOc1cc(=O)[nH]cc1-c1ncc(NC(=O)Nc2cc(C(F)(F)F)c(CN3CCN(CC)CC3)cc2F)c(C)n1 [Example 191, 1-(2-(4-Ethoxy-6-oxo-1,6-dihydropyridin-3-yl)-4-methylpyrimidin-5-yl)-3-(4-((4-ethylpiperazin-1-yl)methyl)-2-fluoro-5-(trifluoromethyl)phenyl)urea trihydrochloride]
6 | < 0.1 | CCOc1[nH]c(=O)ccc1-c1ccc(NC(=O)Nc2ccc(OC3(C)COC3)c(C(F)(F)F)c2)c(F)c1 [Example 35, 1-(4-(2-Ethoxy-6-oxo-1,6-dihydropyridin-3-yl)-2-fluorophenyl)-3-(4-((3-methyloxetan-3-yl)oxy)-3-(trifluoromethyl)phenyl)urea]
7 | < 0.1 | CCOc1cc(=O)[nH]cc1-c1ccc(NC(=O)Nc2ccc(OC3(C)COC3)c(C(F)(F)F)c2)c(F)c1 [Example 18, 1-(4-(4-Ethoxy-6-oxo-1,6-dihydropyridin-3-yl)-2-fluorophenyl)-3-(4-((3-methyloxetan-3-yl)oxy)-3-(trifluoromethyl)phenyl)urea]
8 | < 0.1 | CCOc1cc(-c2ccc(NC(=O)Nc3ccc(CN4CC[C@H](F)C4)c(C(F)(F)F)c3)c(F)c2)c[nH]c1=O [Example 154]
9 | < 0.1 | CCOc1cc(-c2ccc(NC(=O)Nc3ccc(OC(C)(C)COC)c(C(F)(F)F)c3)c(F)c2)c[nH]c1=O [Example 159]
10 | < 0.1 | CCOc1cc(-c2cnc(NC(=O)Nc3ccc(CC(C)(C)CO)c(C(F)(F)F)c3)c(C)n2)c[nH]c1=O [Example 41, 1-(5-(5-Ethoxy-6-oxo-1,6-dihydropyridin-3-yl)-3-methylpyrazin-2-yl)-3-(4-(3-hydroxy-2,2-dimethylpropyl)-3-(trifluoromethyl)phenyl)urea]
11 | < 0.1 | CCOc1cc(=O)[nH]cc1-c1ncc(NC(=O)Nc2ccc(CC(C)(C)N)c(C(F)(F)F)c2)c(C)n1 [Example 186, 1-(4-(2-Amino-2-methylpropyl)-3-(trifluoromethyl)phenyl)-3-(2-(4-ethoxy-6-oxo-1,6-dihydropyridin-3-yl)-4-methylpyrimidin-5-yl)urea]
12 | < 0.1 | CCOc1cc(-c2nc(C)c(NC(=O)Nc3ccc(CN4CCN(CC)CC4)c(C(F)(F)F)c3)c(C)n2)c[nH]c1=O [Example 33, 1-(2-(5-Ethoxy-6-oxo-1,6-dihydropyridin-3-yl)-4,6-dimethylpyrimidin-5-yl)-3-(4-((4-ethylpiperazin-1-yl)methyl)-3-(trifluoromethyl)phenyl)urea]
13 | < 0.1 | CCOc1cc(-c2ccc(NC(=O)Nc3ccc(C(C)(C)O)c(C(F)(F)F)c3)c(F)c2)c[nH]c1=O [Example 129]
14 | < 0.1 | Cc1[nH]c(=O)ccc1-c1ccc(NC(=O)Nc2ccc(OC3(C)COC3)c(C(F)(F)F)c2)c(F)c1 [Example 40, 1-(2-Fluoro-4-(2-methyl-6-oxo-1,6-dihydropyridin-3-yl)phenyl)-3-(4-((3-methyloxetan-3-yl)oxy)-3-(trifluoromethyl)phenyl)urea]
15 | < 0.1 | CCOc1cc(-c2ccc(NC(=O)Nc3ccc(OC4(C)CCC4)c(C(F)(F)F)c3)c(F)c2)c[nH]c1=O [Example 149]
16 | < 0.1 | CCOc1cc(-c2ccc(NC(=O)Nc3ccc(C#N)c(C(F)(F)F)c3)c(F)c2)c[nH]c1=O [Example 158]
17 | < 0.1 | CCOc1cc(-c2cnc(NC(=O)Nc3ccc(OC4(C)COC4)c(C(F)(F)F)c3)c(C)c2)c[nH]c1=O [Example 105]
18 | < 0.1 | COCCOc1cc(=O)[nH]cc1-c1ncc(NC(=O)Nc2cc(C(=O)NCCN(C)C)cc(C(F)(F)F)c2)c(C)n1 [Example 187, N-(2-(dimethylamino)ethyl)-3-(3-(2-(4-(2-methoxyethoxy)-6-oxo-1,6-dihydropyridin-3-yl)-4-methylpyrimidin-5-yl)ureido)-5-(trifluoromethyl)benzamide]
19 | < 0.1 | CNc1cc(-c2ccc(NC(=O)Nc3ccc(OC4(C)COC4)c(C(F)(F)F)c3)c(F)c2)c[nH]c1=O [Example 95]
20 | < 0.1 | CCOc1cc(-c2ccc(NC(=O)Nc3ccc(OC4(C)COC4)c(C(F)(F)F)c3)c(F)c2F)c[nH]c1=O [Example 119]
21 | < 0.1 | Cc1cc(=O)[nH]cc1-c1ccc(NC(=O)Nc2ccc(OC3(C)COC3)c(C(F)(F)F)c2)c(F)c1 [Example 168]
22 | 0.1 to 0.5 | CCOc1cc(-c2ccc(NC(=O)Nc3ccc(OC4(C)COC4)c(C(F)(F)F)c3)c(N(C)C)n2)c[nH]c1=O [Example 112]
23 | < 0.1 | CCOc1cc(-c2ncc(NC(=O)Nc3cc(C(C)(C)C(F)(F)F)on3)cn2)c[nH]c1=O [Example 181, 1-(2-(5-Ethoxy-6-oxo-1,6-dihydropyridin-3-yl)pyrimidin-5-yl)-3-(5-(1,1,1-trifluoro-2-methylpropan-2-yl)isoxazol-3-yl)urea hydrochloride]
24 | < 0.1 | CCOc1cc(-c2ccc(NC(=O)Nc3ccc(OC4(C)COC4)c(C(F)(F)F)c3)c(C)n2)c[nH]c1=O [Example 50, 1-(5′-Ethoxy-6-methyl-6′-oxo-1′,6′-dihydro-[2,3′-bipyridin]-5-yl)-3-(4-((3-methyloxetan-3-yl)oxy)-3-(trifluoromethyl)phenyl)urea hydrochloride]
25 | < 0.1 | CC1(Oc2ccc(NC(=O)Nc3ccc(-c4c[nH]c(=O)cc4OC(F)F)cc3F)cc2C(F)(F)F)COC1 [Example 126]
26 | < 0.1 | CCOc1cc(-c2ncc(NC(=O)Nc3ccc(CC4(C)COC4)c(C(F)(F)F)c3)c(C)n2)c[nH]c1=O [Example 13, 1-(2-(5-Ethoxy-6-oxo-1,6-dihydropyridin-3-yl)-4-methylpyrimidin-5-yl)-3-(4-((3-methyloxetan-3-yl)methyl)-3-(trifluoromethyl)phenyl)urea]
27 | < 0.1 | CCOCc1ccc(NC(=O)Nc2ccc(-c3c[nH]c(=O)c(OCC)c3)cc2F)cc1C(F)(F)F [Example 151]
28 | < 0.1 | CCOc1cc(-c2ccc(NC(=O)Nc3ccc(OCCO)c(C(F)(F)F)c3)c(F)c2)c[nH]c1=O [Example 143]
29 | < 0.1 | CCOc1cc(-c2ncc(NC(=O)Nc3cc(C(F)(F)F)c(CN(C)C)cc3F)c(C)n2)c[nH]c1=O [Example 190, 1-(4-((Dimethylamino)methyl)-2-fluoro-5-(trifluoromethyl)phenyl)-3-(2-(5-ethoxy-6-oxo-1,6-dihydropyridin-3-yl)-4-methylpyrimidin-5-yl)urea dihydrochloride]
30 | < 0.1 | CCOc1cc(-c2ncc(NC(=O)Nc3ccc(CN4CCC4)c(C(F)(F)F)c3)c(C)n2)c[nH]c1=O [Example 109]
